The test deals with T1, S-adenosylmethionine decarboxylase proenzyme (Homo sapiens, UniProt P17707).
T1 sequence (P17707 whole entry): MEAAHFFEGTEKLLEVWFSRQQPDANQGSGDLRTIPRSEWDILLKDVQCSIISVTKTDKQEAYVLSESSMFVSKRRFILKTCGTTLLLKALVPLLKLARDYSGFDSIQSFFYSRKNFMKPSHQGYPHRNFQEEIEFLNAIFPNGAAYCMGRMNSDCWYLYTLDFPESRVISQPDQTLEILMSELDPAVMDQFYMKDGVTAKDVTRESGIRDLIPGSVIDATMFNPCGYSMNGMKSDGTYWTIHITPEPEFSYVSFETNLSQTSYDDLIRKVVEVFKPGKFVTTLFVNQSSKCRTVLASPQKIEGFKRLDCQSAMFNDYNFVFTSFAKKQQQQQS
Put plainly: AdoMetDC Inhibition Assay. How it is done: The C-terminal his-tagged AdoMetDC was assayed by measuring the release of 14CO2 from S-adenosyl-L-[carboxy-14C]methionine (Amersham Pharmacia Biotech). For determination of the abilities of compounds to inhibit AdoMetDC, the enzyme activity was determined in the presence of no inhibitor and at least five concentrations of each potential inhibitor. The IC50 values were determined from curve fitting to plots of the inhibitor concentration versus the % inhibition of AdoMetDC.

As usually defined, the IC50 is the concentration at which inhibition is half-maximal. In turn, `C[S+](C)C[C@H]1O[C@@H](n2cnc3c(N)ncnc32)[C@H](O)[C@@H]1O` [{[(2S,3S,4R,5R)-5-(6-amino-9H-purin-9-yl)-3,4-dihydroxyoxolan-2-yl]methyl}dimethylsulfanium chloride] yielded a half-inhibitory concentration (IC50) of 15 µM.

(Values after BindingDB's records for doi:10.1021/jm801126a (Cornell University, 2009).)
